Results published in US4425356A, “Lankacidin derivatives used in swine husbandry” (Takeda Chemical Industries, Ltd., priority 1980, dated 1984).
≈ marks a conversion by molar mass, not a printed value. Like-named read-outs stand apart in the source and are kept apart here. Blank lines part the entries; values can stand above or below the compound they belong to.

How the values were obtained:
Treponema hyodysenteriae [1] = assay: in vitro antibacterial activity (MIC, agar dilution method), Test Examples 1-3; type: cell-based; conditions: Brachyspira hyodysenteriae, 48 h, 37° C., 2 days, anaerobic
Protocol: Several agents were tested for in vitro antibacterial activity against Treponema hyodysenteriae, the pathogenic bacteria causing swine dysentery, by the method of testing drug sensitivity of Treponema hyodysenteriae (Kashiwazaki et al. Abstracts of Papers presented at the 82nd Meeting of the Japanese Society of Veterinary Science, page 101, 1976).
(1) Strains: These strains belong to Treponema hyodysenteriae isolated
from the bloody mucous faeces of dysenteric pigs in Japan.
(2) Antimicrobial activity assay: Agar dilution method
(3) Inoculum size: A loopful of bacterial suspension (10^6 CFU/ml)
(4) Cultural conditions: GasPak anaerobic system (BBL), 37° C., 2
Typical agents among compound (I) were tested for in vitro antibacterial activity by the same method as in Test Example 1.
The experimental conditions are the same as in Test Example 1 (Table 1).
Agents of compound (I) were tested for in vitro antibacterial activity by the same method as in Test Example 1.

Treponema hyodysenteriae [2] = assay: efficacy in experimental infection in mice with swine dysentery, Test Example 4; type: in vivo; conditions: 5 mg/kg/day oral, day 1 to day 4; seven days after infection
Protocol: Lankacidin A, lankacidin C, lankacidin C 8-acetate, lankacidin C 14-propionate, lankacidinol A and lankacidinol were tested for efficacy against swine dysentery in experimental infection in mice with swine dysentery.
The similar experimental infection model of swine dysentery in mice as that described, for example, by Joens et al. in Infection and Immunity, 25, 757-760 (1979), American Journal of Veterinary Research, 41, 1225-1226 (1980) and Veterinary Record, 107, 527-529 (1980) was used. Thus, a field isolate of Treponema hyodysenteriae anaerobically cultivated on the 5% defibrinated horse blood added Trypticase soy agar (BBL) plate was mashed together with the culture medium and diluted two-fold with Trypticase soy broth (BBL). Mice were inoculated intragastrically with this infecting dilution. Each test agent was suspended in 5% gum arabic solution and forcibly administered orally from day 1 to day 4 following infection. Seven days after infection, the cecum was examined for lesions, and the cecum was mashed together with the contents and subjected to Treponema hyodysenteriae counting. Excellent efficacy was produced in each of the drug-administered groups.

[3] = tested on: Treponema hyodysenteriae 78/A strain; assay: efficacy against swine dysentery under experimental infection conditions in pigs (drug in feed), Test Examples 5-7; type: in vivo, Landrace pigs
Protocol: Lankacidin C was tested for efficacy against swine dysentery under experimental infection conditions. Thus, twelve 6-week-old Landrace pigs (4 per group) were used. The test drug was admixed to a concentration of 100 ppm with the domestically formulated starter feed for young pigs without antibiotics. The animals were provided with the ration ad libitum. Infection of the pigs was effected by direct intragastrical administration to the SPF pigs of an inoculum prepared by preliminary anaerobic cultivation of the Treponema hyodysenteriae 78/A strain on a 5% horse blood added agar plate, mashing together with the culture medium and admixing with 5% mucin added phosphate buffer. Colonic contents and mucosa were collected from pigs which developed typical signs of swine dysentery, and diluted two-fold with 5% mucin added phosphate buffer. The dilution was used as the final inoculum, and 100 ml of the dilution was directly injected into the stomach of test pigs at the age of 7 weeks (fasted for 24 hours before infection). The pigs were fed for 21 days following infection.
The data are each the mean value per head for the 21day period from
infection to autopsy. Different alphabetic letters on the same line
indicate that there is a significant difference between the data to which
they are attached (P <0.05).
Lankacidin C was tested at concentrations in feed of 100 ppm and lower by the same method as in Test Example 5, with carbadox, a commonly used anti-swine-dysentery agent, for comparison.
The anti-swine-dysentery effects of 10 ppm each of lankacidin A and lankacidin C 14-propionate were examined by the procedure of Test Example 6.

[4] = tested on: Treponema hyodysenteriae 78/A strain; assay: therapeutic administration in pigs showing clinical signs of swine dysentery, Test Examples 8-9; type: in vivo; conditions: for Condition of feces: Table 9, individual pig
Protocol: This test was conducted under the conditions of so-called therapeutic administration. […] The method of infection was the same as in Test Example 5. […] Simultaneously with showing of the signs, the pigs were provided with a feed containing 50 ppm of lankacidin C. […] After 2 days, the viable count for the pathogen in feces was below the detection limit (10^2 CFU/g).
The condition of feces was rated at one of the following four classes:
.circle. normal; loose; diarrheal; .circleincircle. mucous and bloody
count is below the detection limit (10^2 CFU/g).
The symbol * indicates those days on which the feed containing 50 ppm of
lankacidin C was given.
Lankacidins were tested for therapeutic effects in swine dysentery under therapeutic conditions in the same manner as in Test Example 8. The effects were judged based on the condition of feces.
The condition of feces was rated at one of the following four classes;
The symbol * indicates the days on which the feed containing 50 ppm of th

[5] = acute toxicity tests with mice; conditions: mouse, in vivo
Text: The toxicity of compound (I) in animals is very low.

[6] = strain 78/A, read-out: Minimum Inhibitory Concentration
[7] = strain CD1 (CD-1), read-out: Minimum Inhibitory Concentration
[8] = strain DJ70P1, read-out: Minimum Inhibitory Concentration
[9] = strain MK-2, read-out: Minimum Inhibitory Concentration
[10] = 10 ppm in feed, 21-day test period
[11] = 10 ppm in feed, 21 day period, mean per head

MIC (Treponema hyodysenteriae [1]; [6]): 0.39 µg/mL (≈ 0.778 µM)
MIC (Treponema hyodysenteriae [1]; [7]): 0.39 µg/mL (≈ 0.778 µM)
MIC (Treponema hyodysenteriae [1]; [8]): 0.78 µg/mL (≈ 1.56 µM)
MIC (Treponema hyodysenteriae [1]; [9]): 0.39 µg/mL (≈ 0.778 µM)
SMILES: CC(=O)OC1C=CC(C)=CC(NC(=O)C(C)=O)C2(C)C(=O)OC(CC(O)C=CC(C)=CC1)C(C)C2=O (stereo not drawn) [Lankacidin C 8-acetate, lankacidin C 8-acetate]
Number of mice from which the pathogen was detected/number of mice tested (Treponema hyodysenteriae [2]): 0/5
Number of mice with cecal lesions/number of mice tested (Treponema hyodysenteriae [2]): 0/5

SMILES: CCC(=O)OC1C=CC(C)=CCC(O)C=CC(C)=CC(NC(=O)C(C)=O)C2(C)C(=O)OC(C1)C(C)C2=O (stereo not drawn) [Lankacidin C 14-propionate, lankacidin C 14-propionate]
MIC (Treponema hyodysenteriae [1]; [6]): 1.56 µg/mL (≈ 3.03 µM)
MIC (Treponema hyodysenteriae [1]; [7]): 3.13 µg/mL (≈ 6.07 µM)
MIC (Treponema hyodysenteriae [1]; [8]): 3.13 µg/mL (≈ 6.07 µM)
MIC (Treponema hyodysenteriae [1]; [9]): 1.56 µg/mL (≈ 3.03 µM)
Number of mice from which the pathogen was detected/number of mice tested (Treponema hyodysenteriae [2]): 1/5
Number of mice with cecal lesions/number of mice tested (Treponema hyodysenteriae [2]): 0/5
Number of pigs from which the pathogen was detected, in colonic mucosa ([3]; 10 ppm in feed): 0
Number of pigs from which the pathogen was detected, in feces ([3]; 10 ppm in feed): 0
Number of pigs showing colonic lesions ([3]; 10 ppm in feed): 0
Number of days on which diarrhea was observed [3, 10]: 0 days
Number of days on which mucous bloody stool was observed [3, 10]: 0 days
Number of pigs showing signs of infection/number of pigs used [3, 10]: 0/4
Body weight gain [3, 11]: 562 grams/day
Feed conversion [3, 11]: 1.81
Feed intake [3, 11]: 21.1 kg
Body weight at the time of completion of test ([3]; 10 ppm in feed, mean per head): 23.1 kg
effect against swine dysentery (in words) ([3]; pig, in vivo): distinctly effective against swine dysentery
therapeutic effect in swine dysentery (in words) ([4]; 50 ppm in feed): therapeutically effective
Condition of feces ([4]; 50 ppm in feed days 0-6, day 7): .circle.
Condition of feces ([4]; 50 ppm in feed days 0-6, day 8): .circle.
Condition of feces ([4]; 50 ppm in feed days 0-6, day 9): .circle.
Condition of feces ([4]; 50 ppm in feed days 0-6, day 10): .circle.
Condition of feces ([4]; 50 ppm in feed days 0-6, day 11): .circle.
Condition of feces ([4]; 50 ppm in feed days 0-6, day 12): .circle.
Condition of feces ([4]; 50 ppm in feed days 0-6, day 13): .circle.
Condition of feces ([4]; 50 ppm in feed days 0-6, day 14): .circle.
Condition of feces ([4]; 50 ppm in feed days 0-6, day 15): .circle.
Condition of feces ([4]; 50 ppm in feed days 0-6, day 16): .circle.
Condition of feces ([4]; 50 ppm in feed days 0-6, day 17): .circle.
Condition of feces ([4]; 50 ppm in feed days 0-6, day 18): .circle.
Condition of feces ([4]; 50 ppm in feed days 0-6, day 19): .circle.
Condition of feces ([4]; 50 ppm in feed days 0-6, day 20): .circle.
Condition of feces ([4]; 50 ppm in feed days 0-6, day 21): .circle.
Condition of feces ([4]; 50 ppm in feed, day 0 after manifestation of signs): .circleincircle.
Condition of feces ([4]; 50 ppm in feed, day 1): .circle.
Condition of feces ([4]; 50 ppm in feed, day 2): .circle.
Condition of feces ([4]; 50 ppm in feed, day 3): .circle.
Condition of feces ([4]; 50 ppm in feed, day 4): .circle.
Condition of feces ([4]; 50 ppm in feed, day 5): .circle.
Condition of feces ([4]; 50 ppm in feed, day 6): .circle.
LD50 ([5]; ip, intraperitoneal, read-out: intraperitoneal LD50): > 10000 mg/kg
LD50 ([5]; oral, read-out: oral LD50): > 10000 mg/kg

MIC (Treponema hyodysenteriae [1]; [6]): 12.5 µg/mL (≈ 24.8 µM)
MIC (Treponema hyodysenteriae [1]; [7]): 25 µg/mL (≈ 49.6 µM)
MIC (Treponema hyodysenteriae [1]; [8]): 25 µg/mL (≈ 49.6 µM)
MIC (Treponema hyodysenteriae [1]; [9]): 25 µg/mL (≈ 49.6 µM)
SMILES: CC(=O)OC1C=CC(C)=CCC(O)C=CC(C)=CC(NC(=O)C(C)O)C2(C)C(=O)OC(C1)C(C)C2=O (stereo not drawn) [Lankacidinol A, lankacidinol A]
Number of mice from which the pathogen was detected/number of mice tested (Treponema hyodysenteriae [2]): 1/5
Number of mice with cecal lesions/number of mice tested (Treponema hyodysenteriae [2]): 0/5

SMILES: CC1=CCC(O)C=CC(C)=CC(NC(=O)C(C)O)C2(C)C(=O)OC(CC(O)C=C1)C(C)C2=O (stereo not drawn) [Lankacidinol, lankacidinol]
MIC (Treponema hyodysenteriae [1]; read-out: Minimum Inhibitory Concentration, strain 78/A): 12.5 µg/mL (≈ 27.1 µM)
MIC (Treponema hyodysenteriae [1]; read-out: Minimum Inhibitory Concentration, strain CD1 (CD-1)): 12.5 µg/mL (≈ 27.1 µM)
MIC (Treponema hyodysenteriae [1]; read-out: Minimum Inhibitory Concentration, strain DJ70P1): 25 µg/mL (≈ 54.2 µM)
MIC (Treponema hyodysenteriae [1]; read-out: Minimum Inhibitory Concentration, strain MK-2): 25 µg/mL (≈ 54.2 µM)
Number of mice from which the pathogen was detected/number of mice tested (Treponema hyodysenteriae [2]): 0/5
Number of mice with cecal lesions/number of mice tested (Treponema hyodysenteriae [2]): 0/5
